Measurements published in paper PMC3581553, “New Approaches of PARP-1 Inhibitors in Human Lung Cancer Cells and Cancer Stem-Like Cells by Some Selected Anthraquinone-Derived Small Molecules” (PLoS ONE, 2013).
Where two headings read alike, the source gives them in different places.

Columns and labels:
NCI-60 cancer cell lines = experiment: NCI-60 panel of human tumor cell lines, median GI50; type: cell-based; details: median over NCI-60 cancer cell lines, read-out: median 50% growth inhibitory concentration (GI50)
Experimental: (§1) As a primary screening, seven selected compounds were submitted to the National Cancer Institute (NCI) cell lines screen for evaluation of their anticancer activity. From the data analysis, it follows that approximately 95% of the actives from the 60 cell lines screen can be identified. The detailed methods used for the 60 cell lines panel have been described elsewhere [54]–[59]. Briefly, cellular protein levels were determined after 48 hours of drug exposure by SRB colorimetry. Through the use of a time zero cell control, the cell growth can be determined for each cell line thus allowing calculations of GI50, TGI, and LC50. Comparison to plates not exposed to drug permits determination of concentration and times of exposure conferring GI50, TGI, and LC50. […] By these criteria, seven compounds reported from our compounds bank were all active and passed on for evaluation in the full panel of 60 human tumor cell lines. The panel is organized into nine subpanels representing diverse histology: leukemia, melanoma, and cancers of the lung, colon, kidney, ovary, breast, prostate, and central nervous system.

NCI-H322M = experiment: NCI-60 drug screen (SRB), NSCLC line NCI-H322M; type: cell-based, human; details: for GI50: Homo sapiens
Experimental: as §1

NCI-H226 = experiment: NCI-60 drug screen (SRB), NSCLC line NCI-H226; type: cell-based, human
Experimental: as §1

NCI-H522 = experiment: NCI-60 drug screen (SRB), NSCLC line NCI-H522; type: cell-based, human
Experimental: as §1

EKVX = experiment: NCI-60 drug screen (SRB), NSCLC line EKVX; type: cell-based, human; details: for GI50: Homo sapiens
Experimental: as §1

[1] = test system: PARP-1 mRNA expression in A3 cells; experiment: Quantitative RT-PCR of PARP-1 in treated A3 cells; type: cell-based, human
Text: RNA was isolated from cells with the TRIzol (Invitrogen) reagent […], and this was followed by RNA clean up with the RNeasy Minikit (QIAGEN). cDNA was produced with the First Strand cDNA Synthesis Kit (Roche). Real-time quantitative PCR reactions were set up in triplicate with the Brilliant II SYBR Green QPCR Master Mix (Stratagene) and run on an Mx3000P QPCR System (Stratagene).

A549/ATCC = experiment: NCI-60 drug screen (SRB), NSCLC line A549/ATCC; type: cell-based, human; details: for GI50: Homo sapiens
Experimental: as §1

HEL299 cells = experiment: MTT cytotoxicity assay, HEL299 normal fibroblasts; type: cell-based; details: Homo sapiens, HEL 299, 48 h of drug exposure
Experimental: Non-small cell lung cancer cells A549 and Oct-4- and Nanog-overexpressed A549 clone (clone #3; A3), presented the properties of cancer stem-like cells, as well as epithelial-mesenchymal transdifferentiation, according to our previous study. They were grown in the same conditions as RPMI 1640 media supplemented with 10% fetal bovine serum (FBS), 100 units/mL penicillin, […] streptomycin, 1 mM sodium pyruvate, 2 mM l-glutamine and 1% non-essential amino acid (NEAA) in a humidified atmosphere with 5% CO2 at 37°C. Normal fibroblast cells HEL299 from American Type Culture Collection (ATCC) were grown in MEM media supplemented with 10% FBS, 100 units/mL penicillin, […] streptomycin, 1 mM sodium pyruvate, 2 mM l-glutamine and 1% NEAA, in a humidified atmosphere with 5% CO2 at 37°C.
The tetrazolium reagent (MTT; 3-(4,5-dimethylthiazol-2-yl)-2,5-diphenyl-tetrazolium bromide, USB) was designed to yield a colored formazan upon metabolic reduction by viable cells, [61]. Approximately 5×10^4 cells were plated onto each well of a 24-well plate and incubated in 5% CO2 at 37°C for 24 hours. To assess the in vitro cytotoxicity, each compound was dissolved in DMSO and prepared immediately before the experiments and then was diluted into the complete medium before being added to cell cultures. Test compounds were then added to the culture medium in various designated concentrations. After 48 hours, an amount of 100 µl of MTT was added to each well, and the samples were incubated at 37°C for 2 h. 100 µl DMSO was added to each well. The absorbency at 560 nm and reference absorbency at 670 nm were measured using an ELISA reader.

HOP-62 = experiment: NCI-60 drug screen (SRB), NSCLC line HOP-62; type: cell-based, human
Experimental: as §1

A3 clone = experiment: Sphere formation and cell viability assay in A3 clone; type: cell-based, human; details: treated A3 clone
[2] = 48 hours drug exposure, SRB, read-out: GI50
[3] = NCI in vitro 60-cell lines Drug Screen, read-out: -Log GI50 (converted)
[4] = Homo sapiens, 48 hours drug exposure, SRB, read-out: GI50
[5] = Homo sapiens, 48 hours drug exposure, SRB, read-out: LC50 (the source's name)
[6] = Homo sapiens, NCI in vitro 60-cell lines Drug Screen, read-out: -Log GI50 (converted)

CN(C)CCCSc1nc2ccc3c(c2[nH]1)C(=O)c1ccccc1C3=O [NSC747854]
GI50 (NCI-60 cancer cell lines): 6.92 µM | TGI (NCI-H322M; 48 hours drug exposure, SRB): 20.6 µM | GI50 (NCI-H322M; [2]): 0.72 µM | GI50 (NCI-H322M; [3]): 0.724 µM | TGI (NCI-H226; 48 hours drug exposure, SRB): 22.1 µM | GI50 (NCI-H226; [4]): 3.74 µM | CC50 (NCI-H226; [5]): 58.7 µM | GI50 (NCI-H226; [6]): 3.72 µM | TGI (NCI-H522; 48 hours drug exposure, SRB): 24.9 µM | GI50 (NCI-H522; [4]): 1.22 µM | CC50 (NCI-H522; [5]): 50 µM | GI50 (NCI-H522; [6]): 12.3 µM | TGI (EKVX; 48 hours drug exposure, SRB): 20.1 µM | GI50 (EKVX; [2]): 4.2 µM | GI50 (EKVX; [3]): 4.17 µM | expression levels of PARP-1 (mRNA) [1]: inhibit the expression levels of PARP-1 | TGI (A549/ATCC; 48 hours drug exposure, SRB): 12.6 µM | GI50 (A549/ATCC; [2]): 3.26 µM | GI50 (A549/ATCC; [3]): 3.24 µM | IC50 (HEL299 cells): 27.8 µM | TGI (HOP-62; 48 hours drug exposure, SRB): 32.3 µM | GI50 (HOP-62; [4]): 5.9 µM | CC50 (HOP-62; [5]): 48.9 µM | GI50 (HOP-62; [6]): 5.89 µM | cell growth / cell viability (A3 clone): inhibit the cell growth | sphere formation (A3 clone; serum free medium with bFGF and EGF (10 ng/ml)): effectively block the sphere formation
